Data reported in patent US6403606B1, “Thienopyridine derivatives and their use” (Takeda Chemical Industries Ltd., priority 1996, dated 2002).
Marks after values point to notes of the source that are not given here.

Legend:
[1] = tested on: fetal rat bone culture (humeri, radii and ulnae); assay: Bone resorption inhibitory activity, 45Ca release from fetal rat bone culture (Test Example 2B); type: cell-based, Sprague-Dawlay rat; conditions: 10 μM compound, 2 days culture; 45Ca release as % of control without compound (lower = more inhibition)
Description: (§1) The measurement of bone resorption inhibitory activity was carried out according to the method of Raisz [J. Clin. Invest., 44, 103-116 (1965)]. Namely, 50 μCi of ^45Ca (radioisotope of calcium in CaCl2 solution) was subcutaneously injected into a Sprague-Dawlay rat of 18th day of pregnancy. On the next day, the abdomen was opened and a fetal rat was taken out sterilely. The left and right humeri (radii and ulnae) were removed from the body under a dissection microscope and connective tissues and cartilages were removed as much as possible. Thus, bone culture samples were prepared. The bone was incubated in a medium (0.6 ml) of BCJb medium (Fitton-Jackson modification: GIBCO Laboratories, U.S.A.) containing 2 mg/ml of bovine serum albumin at 37° C. for 24 hours in an atmosphere of 5% of CO2 in air. The bones were cultured for an additional 2 days in the above medium containing a final concentration of 10 μM of the compound. The ratio (%) of ^45Ca released from the bone into the medium was calculated according to the following equation. [formula]
(§2) The bones from the same litter were cultured for 2 days the same manner without addition of the compound, and used as the control. The mean±standard deviation of the values for five bones of each group was calculated. The ratio (%) of this value to the control value was calculated. The results are shown in Table 4 (In the tables hereinafter, Ex. No. indicates Example No.).

Rat Adjuvant Arthritis [2] = assay: Activity on rat adjuvant arthritis (Test Example 1A); type: in vivo, Male Lewis rats; conditions: 6.25 mg/kg once daily for 14 days, relative to non-sensitized rats, N=6; for Body weight gain rate (%): day 14; for Edema inhibitory rate (%): left hind paw volume day 14
Description: (§3) Male Lewis rats (7 weeks old, Clea Japan) were sensitized by intracutaneous injection of 0.05 ml of Freund's complete adjuvant (0.5% dead tubercle bacillus cell suspension in liquid paraffin) at the right hind paw. The test drug (6.25 mg/kg), in a suspension in 0.5% methyl cellulose, was administered once daily for 14 days starting just before sensitization (day 0). At the days 0 and 14, the left hind paw volume and body weight of the animals were measured using a plethysmometer (manufactured by Ugo Basile Company, Italy) and an electronic balance (EB-3200D, manufactured by Shimadzu Corporation, Japan), respectively, and paw swelling suppression rate (%) and body weight gain rate (%), relative to non-sensitized rats, were determined.
(§4) The results, expressed in mean±S.E. for each group (N=6), were compared and statistically analyzed by Dunnet method. Level of significance was set below 5%.

[3] = tested on: fetal rat bone culture (humeri, radii and ulnae); assay: Bone resorption inhibitory activity, 45Ca release from fetal rat bone culture (Test Example 2A); type: cell-based, Sprague-Dawlay rat; conditions: 10 μM compound, 2 days culture; 45Ca release as % of control without compound (lower = more inhibition)
Description: as §1
as §2, with “2” for “4”

Rat Adjuvant Arthritis [4] = assay: Activity on rat adjuvant arthritis (Test Example 1B); type: in vivo, Male Lewis rats; conditions: N=6; for Body weight gain rate (%): day 14; for Edema inhibitory rate (%): left hind paw volume day 14
Description: as §3, with “(6.25 mg/kg or 3.13” for “(6.25”
as §4

[5] = 6.25 mg/kg once daily for 14 days
[6] = 3.13 mg/kg once daily for 14 days

Row | Molecule | melting point | Bone resorption inhibitory activity (^45Ca release) (% based on the control value) [3] | further results
1 | CCOC(=O)c1c(CN(CC)CC)nc2sc3cnccc3c2c1-c1ccc(OC)c(OC)c1 [Example 7A, ethyl 2-(N,N-diethylaminomethyl)-4-(3,4-dimethoxyphenyl)thieno[2,3-b:5,4-c′]dipyridine-3-carboxylate] | – | – | Body weight gain rate (%) (Rat Adjuvant Arthritis [2]): 26** %; Edema inhibitory rate (%) (Rat Adjuvant Arthritis [2]): 84** %
2 | CCOC(=O)c1c(CN(CC)CC)nc2sc3c(c2c1-c1ccc(OC)c(OC)c1)CCN(C(=O)c1ccccc1)C3 [Example 1A, ethyl 7-benzoyl-2-(N,N-diethylaminomethyl)-4-(3,4-dimethoxyphenyl)-5,6,7,8-tetrahydrothieno[2,3-b:5,4-c′]dipyridine-3-carboxylate] | – | – | Body weight gain rate (%) (Rat Adjuvant Arthritis [2]): 15%; Edema inhibitory rate (%) (Rat Adjuvant Arthritis [2]): 49%
3 | CCOC(=O)c1c(CN(CC)CC)nc2sc3c(c2c1-c1ccc(OC)c(OC)c1)CCN(C(C)=O)C3 [Example 15A, ethyl 7-acetyl-2-(N,N-diethylaminomethyl)-4-(3,4-dimethoxyphenyl)-5,6,7,8-tetrahydrothieno[2,3-b:5,4-c′]dipyridine-3-carboxylate] | – | – | Body weight gain rate (%) (Rat Adjuvant Arthritis [2]): 9%; Edema inhibitory rate (%) (Rat Adjuvant Arthritis [2]): 60** %
4 | CCOC(=O)c1c(CCCCn2cncn2)nc2sc3c(c2c1-c1ccc(OC)c(OC)c1)CCN(C(=O)c1ccc(Cl)cc1)C3 [Example 28A, ethyl 7-(4-chlorobenzoyl)-4-(3,4-dimethoxyphenyl)-5,6,7,8-tetrahydro-2-[4-(1,2,4-triazol-1-yl]butyl]thieno[2,3-b:5,4-c′]dipyridine-3-carboxylate] | 165 to 166 °C | 67*** % based on the control value | –
5 | 7-benzyl-3-chloro-4-(3,4-dimethoxyphenyl)-2-(2-oxo-1-pyrrolidinylmethyl)-5,6,7,8-tetrahydrothieno[2,3-b:5,4-c′]dipyridine [Example 28B] | – | – | Body weight gain rate (%) (Rat Adjuvant Arthritis [4]; [5]): 19** %; Edema inhibitory rate (%) (Rat Adjuvant Arthritis [4]; [5]): 78** %; Bone resorption inhibitory inhibitory activity (^45Ca release) (% based on the control value) [1]: 47** % based on the control value
6 | CCOC(=O)c1c(CN(CC)CC)nc2sc3c(c2c1-c1ccc(CC)cc1)CCNC3 [Example 33A, ethyl 4-(4-ethylphenyl)-5,6,7,8-tetrahydro-2-(N,N-diethylaminomethyl)thieno[2,3-b:5,4-c′]dipyridine-3-carboxylate] | 107 to 108 °C | 72** % based on the control value | –
7 | CCOC(=O)c1c(Cn2cncn2)nc2sc3cnccc3c2c1-c1ccc(OC)c(OC)c1 [Example 47A, ethyl 4-(3,4-dimethoxyphenyl)-2-(1,2,4-triazol-1-ylmethyl)thieno[2,3-b:5,4-c′]dipyridine-3-carboxylate] | 172 to 174 °C | – | –
8 | 7-benzyl-3-chloro-4-(4-hydroxy-3-methoxyphenyl)-2-(2-oxo-1-pyrrolidinylmethyl)-5,6,7,8-tetrahydrothieno[2,3-b:5,4-c′]dipyridine [Example 29B] | – | – | Body weight gain rate (%) (Rat Adjuvant Arthritis [4]; [6]): 12%; Edema inhibitory rate (%) (Rat Adjuvant Arthritis [4]; [6]): 69** %
9 | 7-benzyl-3-chloro-4-(3,4-dimethoxyphenyl)-2-(2-oxo-1-piperidinylmethyl)-5,6,7,8-tetrahydrothieno[2,3-b:5,4-c′]dipyridine [Example 24B] | – | – | Bone resorption inhibitory inhibitory activity (^45Ca release) (% based on the control value) [1]: 44** % based on the control value
10 | COc1cc(-c2c(Cl)c(CNC(C)(C)C)nc3sc4c(c23)CCNC4)ccc1OC(C)C [Example 11B, 2-(tert-butylaminomethyl)-3-chloro-4-(4-isopropoxy-3-methoxyphenyl)-5,6,7,8-tetrahydrothieno[2,3-b:5,4-c′]dipyridine] | 157 to 158 °C | – | –
11 | CCOC(=O)c1c(Cn2cncn2)nc2sc3c(c2c1-c1ccc(OC)c(OC)c1)CNCC3 [Example 63A, ethyl 4-(3,4-dimethoxyphenyl)-5,6,7,8-tetrahydro-2-(1,2,4-triazol-1-ylmethyl)thieno[2,3-b:4,5-c′]dipyridine-3-carboxylate] | 180 to 181 °C | – | –
12 | CCOC(=O)c1c(CN(CC)CC)nc2sc3c(c2c1-c1ccc(Cl)cc1)CCNC3 [Example 6A, ethyl 4-(4-chlorophenyl)-2-(N,N-diethylaminomethyl)-5,6,7,8-tetrahydrothieno[2,3-b:5,4-c′]dipyridine-3-carboxylate] | 104 to 106 °C | – | –

The next lines start with results.

Row | melting point | Molecule | Bone resorption inhibitory activity (^45Ca release) (% based on the control value) [3] | further results
13 | 113 to 114 °C | COc1ccc(-c2c(Cl)c(CN3CCCCCC3=O)nc3sc4c(c23)CCN(Cc2ccccc2)C4)cc1OC [Example 25B, 7-benzyl-3-chloro-4-(3,4-dimethoxyphenyl)-2-(2-oxohexamethyleneiminomethyl)-5,6,7,8-tetrahydrothieno[2,3-b:5,4-c′]dipyridine] | – | Bone resorption inhibitory inhibitory activity (^45Ca release) (% based on the control value) [1]: 52** % based on the control value
14 | 114 to 116 °C | CCOC(=O)c1c(CCCn2cncn2)nc2sc3c(c2c1-c1ccc(OC)c(OC)c1)CCN(C(=O)c1ccc(Cl)cc1)C3 [Example 27A, ethyl 7-(4-chlorobenzoyl)-4-(3,4-dimethoxyphenyl)-5,6,7,8-tetrahydro-2-[3-(1,2,4-triazol-1-yl]propyl]thieno[2,3-b:5,4-c′]dipyridine-3-carboxylate] | 74* % based on the control value | –
15 | 72 to 75 °C | CCOC(=O)c1c(CN(CC)CC)nc2sc3c(c2c1-c1ccc(OC)c(OC)c1)CCNC3 [Example 5A, ethyl 2-(N,N-diethylaminomethyl)-4-(3,4-dimethoxyphenyl)-5,6,7,8-tetrahydrothieno-[2,3-b:5,4-c′]dipyridine-3-carboxylate] | 72* % based on the control value | –
16 | 154 to 155 °C | CCOC(=O)c1c(CN(CC)CC)nc2sc3c(c2c1-c1ccc(OC)c(OC)c1)CCN(C(=O)Nc1ccccc1)C3 [Example 12A, ethyl 2-(N,N-diethylaminomethyl)-4-(3,4-dimethoxyphenyl)-7-phenylcarbamoyl-5,6,7,8-tetrahydrothieno[2,3-b:5,4-c′]dipyridine-3-carboxylate] | 77* % based on the control value | –
17 | 96 to 98 °C | CCOC(=O)c1c(CN(CC)CC)nc2sc3c(c2c1-c1ccc(OC)c(OC)c1)CCN(C(=O)c1ccc(Cl)cc1)C3 [Example 2A, ethyl 7-(4-chlorobenzoyl)-2-(N,N-diethylaminomethyl)-4-(3,4-dimethoxyphenyl)-5,6,7,8-tetrahydrothieno[2,3-b:5,4-c′]dipyridine-3-carboxylate] | 62** % based on the control value | –
18 | 150 to 151 °C | CCN(CC)Cc1nc2sc3c(c2c(-c2ccc(OC)c(OC)c2)c1Cl)CCN(Cc1ccccc1)C3 [Example 2B, 7-benzyl-3-chloro-2-(N,N-diethylaminomethyl)-4-(3,4-dimethoxyphenyl)-5,6,7,8-tetrahydrothieno[2,3-b:5,4-c′]dipyridine] | – | –
19 | 156 to 157 °C | CCOC(=O)c1c(CN(CC)CC)nc2sc3ncccc3c2c1-c1ccc(OC)c(OC)c1 [Example 64A, ethyl 2-diethylaminomethyl-4-(3,4-dimethoxyphenyl)thieno[2,3-b:5,4-b′]dipyridine-3-carboxylate] | – | –
